From ChEMBL document CHEMBL1201862, “PubChem BioAssay data set” (2004)
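Tested at 5 concentrations; 48 h exposure; 96-well plates; endpoints linearly interpolated, else capped at highest concentration. At the GI50, growth is halved.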 Calls of active or inactive are those of the source. Cut-off read from the data, not from the text of the source: active = GI50 up to about 1.1 µM and inactive = higher.

Experiments:
Assay in all cases: NCI anticancer screen, dose series, 48 h
[1] = system: 786-0
[2] = system: A549
[3] = system: COLO 205
[4] = system: EKVX
[5] = system: HCC 2998
[6] = system: HCT-15
[7] = system: HL-60
[8] = system: HOP-62
[9] = system: K562
[10] = system: KM12
[11] = system: MDA-MB-435
[12] = system: NCI-H23
[13] = system: NCI-H522
[14] = system: NCI/ADR-RES
[15] = system: OVCAR-3
[16] = system: OVCAR-8
[17] = system: RXF 393
[18] = system: SK-MEL-5
[19] = system: SN12C
[20] = system: UO-31

SMILES | GI50 [1] | GI50 [2] | GI50 [3] | GI50 [4] | GI50 [5] | GI50 [6] [µM] | GI50 [7] | GI50 [8] | GI50 [9] | GI50 [10] | GI50 [11] | GI50 [12] | GI50 [13] | GI50 [14] | GI50 [15] | GI50 [16] | GI50 [17] | GI50 [18] | GI50 [19] | GI50 [20]
O=C1/C(=C/c2ccc(O)c(O)c2)CC/C1=C\c1ccc(O)c(O)c1 | 3.83 µM (inactive) | 15.7 µM (inactive) | 16.2 µM (inactive) | 10.7 µM (inactive) | > 21.6 µM (inactive) | 7.16 | 3.39 µM (inactive) | 7.11 µM (inactive) | 3.24 µM (inactive) | 9.79 µM (inactive) | 4.68 µM (inactive) | 3.09 µM (inactive) | 2.01 µM (inactive) | 8.24 µM (inactive) | 5.09 µM (inactive) | 10 µM (inactive) | 3.25 µM (inactive) | 4.03 µM (inactive) | 7.29 µM (inactive) | 2.29 µM (inactive)
CCOC(=O)/C(=C\c1cccc(C)c1)C(C)=O | 13.6 µM (inactive) | 30 µM (inactive) | 19.2 µM (inactive) | 48 µM (inactive) | 15.1 µM (inactive) | 15.6 | 3.98 µM (inactive) | 24.5 µM (inactive) | 28.4 µM (inactive) | 15.2 µM (inactive) | 16.3 µM (inactive) | 17 µM (inactive) | 10 µM (inactive) | 19.6 µM (inactive) | 14.5 µM (inactive) | 21.6 µM (inactive) | 11.5 µM (inactive) | 16.6 µM (inactive) | 17.1 µM (inactive) | 13.8 µM (inactive)
Cc1c(OCc2cccc3ccccc23)ccc2c(=O)cc(SCCN3CCOCC3)oc12 | > 100 µM (inactive) | > 100 µM (inactive) | > 100 µM (inactive) | > 100 µM (inactive) | > 100 µM (inactive) | > 100 | > 100 µM (inactive) | > 100 µM (inactive) | > 100 µM (inactive) | > 100 µM (inactive) | > 100 µM (inactive) | > 100 µM (inactive) | 90.6 µM (inactive) | > 100 µM (inactive) | > 100 µM (inactive) | > 100 µM (inactive) | > 100 µM (inactive) | > 100 µM (inactive) | > 100 µM (inactive) | > 100 µM (inactive)
O=C(CC(O)(C(F)(F)F)C(F)(F)F)C(CCCl)C(O)(C(F)(F)F)C(F)(F)F (stereo not given) | 32.7 µM (inactive) | 35.6 µM (inactive) | 13.8 µM (inactive) | 34.7 µM (inactive) | 43.8 µM (inactive) | 34.3 | 16.6 µM (inactive) | 33.3 µM (inactive) | 39.7 µM (inactive) | 42.3 µM (inactive) | 62.7 µM (inactive) | 33.2 µM (inactive) | 34.4 µM (inactive) | 9.89 µM (inactive) | 11.5 µM (inactive) | 27.9 µM (inactive) | 21.1 µM (inactive) | 23.2 µM (inactive) | 18.9 µM (inactive) | 28.2 µM (inactive)
CC(O)C(NC(=O)C(CS)NC(=O)C(CO)NC(=O)C(CCCCN)NC(=O)C(Cc1c[nH]c2ccccc12)NC(=O)C(Cc1ccc(O)cc1)NC(=O)C(CS)NC(=O)C(N)Cc1ccccc1)C(N)=O (stereo not given) | > 25 µM (inactive) | > 25 µM (inactive) | > 25 µM (inactive) | > 25 µM (inactive) | > 25 µM (inactive) | > 25 | > 25 µM (inactive) | > 25 µM (inactive) | > 25 µM (inactive) | > 25 µM (inactive) | > 25 µM (inactive) | > 25 µM (inactive) | > 25 µM (inactive) | > 25 µM (inactive) | > 25 µM (inactive) | > 25 µM (inactive) | > 25 µM (inactive) | > 25 µM (inactive) | > 25 µM (inactive) | > 25 µM (inactive)
N#Cc1c(=O)c2cc([N+](=O)[O-])ccc2n2c1[nH]c1ccccc12 | 6.75 µM (inactive) | 7.57 µM (inactive) | 4.99 µM (inactive) | 23.1 µM (inactive) | 7.21 µM (inactive) | 7.64 | 4.81 µM (inactive) | 9.55 µM (inactive) | 3.78 µM (inactive) | 5.85 µM (inactive) | 10.3 µM (inactive) | 3.19 µM (inactive) | 2.18 µM (inactive) | 3.54 µM (inactive) | 3.43 µM (inactive) | 5.27 µM (inactive) | 3.55 µM (inactive) | 13.3 µM (inactive) | 9.93 µM (inactive) | 4.3 µM (inactive)
COc1ccc(/C=C/C(=O)Oc2cc(O)cc(O)c2)cc1 | 56.9 µM (inactive) | 34.8 µM (inactive) | 57.9 µM (inactive) | 56.2 µM (inactive) | 33 µM (inactive) | 16.9 | 22 µM (inactive) | 17.3 µM (inactive) | 22.5 µM (inactive) | 14.2 µM (inactive) | 61.9 µM (inactive) | 42.1 µM (inactive) | 24.4 µM (inactive) | 34.4 µM (inactive) | 18 µM (inactive) | 28.2 µM (inactive) | 72.4 µM (inactive) | 52.8 µM (inactive) | 36.4 µM (inactive) | 37.6 µM (inactive)
